Measured values: patent US20150336889A1, “INDOLE DERIVATIVES, PHARMACEUTICAL COMPOSITIONS CONTAINING SUCH INDOLES AND THEIR USE AS DNA METHYLATION MODULATORS” (IKERCHEM, S.L., priority 2012, published 2015)

Tests used:
PC3 = assay: Cancer cell growth inhibition, PC3; format: cell-based; conditions: Homo sapiens, PC-3; Prostate, PC3, cell viability, 72 h
Method: (§1) Cell culture-based assays were used to evaluate the ability of compounds of the invention to inhibit cancer cell growth inhibition.
(§2) Cells were obtained from the American Type Culture Collection (ATCC) and European Collection of Cell Cultures (ECACC).
(§3) Cells were thawed in their appropriate media plus supplements (see table below). Cells were passaged at confluence by washing once in HBSS cation-free followed by a 3 minutes incubation with trypsin ([0.5 μg/ml]/EDTA [0.2 μg/ml]) (Gibco-BRL, 15400054) solution in HBSS at 37° C. (except non-adherent cell lines), and transferred to their appropriate media plus supplements. Prior to seeding at defined cell concentration, cells were recovered in medium, centrifuged and taken up in medium, and counted.
(§4) Cells were plated at 3000/5000/10000 cells/well in 100 μl media in tissue culture 96 well plates (Cultek). After 24 h, media was supplemented by 100 μl/well of diluted IPDNs at 100 μM.
(§5) The Hexosaminidase assay was used for the adherent cell lines, whereas the AlamarBlue® assay was used for the non-adherent cell lines.
(§6) Dose-response curves were generated by serial dilutions (1:1) of the compounds. […] Reagent blanks, containing media plus colorimetric reagent without cells were run on each plate. Blank values were subtracted from test values and were routinely 5-10% of uninhibited control values. Plates were incubated 72 h, and living cell number was determined by AlamarBlue® and Hexosaminidase test. The advantages of using those assays are that both can be done in the same microwell plate. AlamarBlue® assay: plates were incubated 72 h and living cell number was determined by AlamarBlue (Biosource DAL1100). After 4 h incubation at 37° C., relative fluorescent intensity, which correlates with the number of living cells, was read in a Cytofluor plate reader (Millipore) at 535/590 nm (Excitation/emission). The hexosaminidase activity was measured according to the following protocol: the media was removed and cells were washed once with PBS.
(§7) Data analysis was done by calculating the percentage of cell viability normalized in front of negative control values, which were considered as a 100%. The curve was adjusted using a sigmoidal dose-response (variable slope) equation and EC50 values were obtained from the equation
(§8) where, X is the logarithm of concentration. Y is the response. Bottom is the Y value at the bottom plateau Top is the Y value at the top plateau LogEC50 is the X value when the response is halfway between Bottom and Top. With different kinds of variables, this variable is sometimes called ED50 (effective dose, 50%), or IC50 (inhibitory concentration, 50%, used when the curve goes downhill).

MDA-MB-435 = assay: Cancer cell growth inhibition, MDA-MB-435; format: cell-based; conditions: Homo sapiens; Melanoma, MDA-MB-435, cell viability, 72 h
Method: as §1, §2, §3, §4, §5, §6, §7, §8

Daoy = assay: Cancer cell growth inhibition, Daoy; format: cell-based; conditions: Homo sapiens, Brain, cell viability, 72 h
Method: as §1, §2, §3, §4, §5, §6, §7, §8

MDA-MB-468 = assay: Cancer cell growth inhibition, MDA-MB-468; format: cell-based; conditions: Homo sapiens; Breast, MDA-MB-468, cell viability, 72 h
Method: as §1, §2, §3, §4, §5
as §6, with “PBS. […]” for “PBS.”

A-431 = assay: Cancer cell growth inhibition, A-431; format: cell-based; conditions: Homo sapiens; Epidermoid, A-431, cell viability, 72 h
Method: as §1, §2, §3, §4, §5, §6, §7, §8

LnCaP = assay: Cancer cell growth inhibition, LnCaP; format: cell-based; conditions: Homo sapiens, Prostate, cell viability, 72 h
Method: as §1, §2, §3, §4, §5, §6, §7, §8

Human DNMT1 = target: T1, Human DNMT1 (Homo sapiens, UniProt P26358); assay: DNMT1 enzymatic activity inhibition, radioisotope-based 3H-SAM filter binding assay; format: biochemical; conditions: 1 μM SAM, 25 nM DNMT1, 0.005 mg/ml Poly(dI-dC), 30° C. 1 hour, 10-dose
T1 construct: a-a 2-1632, with N-terminal GST tag; GST (N)
T1 sequence (P26358 2-1632 isoform P26358-2): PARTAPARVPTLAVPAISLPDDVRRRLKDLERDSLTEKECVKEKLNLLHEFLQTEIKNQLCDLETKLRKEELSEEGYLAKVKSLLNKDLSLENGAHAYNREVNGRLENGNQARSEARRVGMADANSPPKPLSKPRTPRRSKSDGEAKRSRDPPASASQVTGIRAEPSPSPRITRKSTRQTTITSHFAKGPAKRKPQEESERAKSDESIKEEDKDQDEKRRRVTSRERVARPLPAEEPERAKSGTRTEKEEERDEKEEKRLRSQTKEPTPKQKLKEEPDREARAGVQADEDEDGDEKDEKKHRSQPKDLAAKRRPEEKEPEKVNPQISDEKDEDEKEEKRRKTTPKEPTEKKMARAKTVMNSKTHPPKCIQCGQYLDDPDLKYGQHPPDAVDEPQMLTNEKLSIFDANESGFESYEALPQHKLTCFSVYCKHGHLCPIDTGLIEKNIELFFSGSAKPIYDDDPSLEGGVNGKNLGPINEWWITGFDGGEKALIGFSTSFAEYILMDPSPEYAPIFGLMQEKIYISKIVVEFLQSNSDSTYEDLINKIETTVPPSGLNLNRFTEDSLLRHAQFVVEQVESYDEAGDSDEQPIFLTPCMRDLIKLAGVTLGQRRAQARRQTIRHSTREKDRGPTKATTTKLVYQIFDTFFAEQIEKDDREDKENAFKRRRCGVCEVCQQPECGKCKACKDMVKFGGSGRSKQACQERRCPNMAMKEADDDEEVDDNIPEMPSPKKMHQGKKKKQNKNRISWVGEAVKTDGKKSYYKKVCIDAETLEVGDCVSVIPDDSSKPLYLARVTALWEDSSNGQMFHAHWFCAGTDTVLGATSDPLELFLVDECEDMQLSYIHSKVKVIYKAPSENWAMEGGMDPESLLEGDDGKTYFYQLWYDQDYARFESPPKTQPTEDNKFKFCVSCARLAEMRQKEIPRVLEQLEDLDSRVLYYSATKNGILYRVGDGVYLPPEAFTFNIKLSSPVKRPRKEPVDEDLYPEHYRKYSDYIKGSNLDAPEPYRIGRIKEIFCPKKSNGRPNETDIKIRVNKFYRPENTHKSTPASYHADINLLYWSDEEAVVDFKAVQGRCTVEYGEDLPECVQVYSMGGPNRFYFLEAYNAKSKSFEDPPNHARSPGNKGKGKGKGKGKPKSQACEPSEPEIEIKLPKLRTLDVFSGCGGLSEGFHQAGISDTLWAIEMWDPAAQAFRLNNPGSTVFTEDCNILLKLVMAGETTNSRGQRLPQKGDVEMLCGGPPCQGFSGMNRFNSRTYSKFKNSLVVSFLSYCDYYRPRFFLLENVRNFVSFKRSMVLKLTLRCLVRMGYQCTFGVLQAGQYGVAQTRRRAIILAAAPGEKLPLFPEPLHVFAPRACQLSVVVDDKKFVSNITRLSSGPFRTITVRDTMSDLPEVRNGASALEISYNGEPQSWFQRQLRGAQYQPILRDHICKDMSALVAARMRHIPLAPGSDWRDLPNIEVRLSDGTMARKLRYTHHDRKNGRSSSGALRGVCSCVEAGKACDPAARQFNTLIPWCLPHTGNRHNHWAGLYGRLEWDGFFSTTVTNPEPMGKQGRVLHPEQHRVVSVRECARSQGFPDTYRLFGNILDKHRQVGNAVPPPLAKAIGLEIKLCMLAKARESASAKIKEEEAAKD
Method: The inhibition of the enzymatic activity of DNMT1 was tested using low volume radioisotope-based assay which uses tritium-labeled AdoMet (^3H-SAM) as a methyl donor. Inhibitors diluted in DMSO were added by using acoustic technology (Echo550, Labcyte Inc. Sunnyvale, Calif.) into enzyme/substrate mixture in nano-liter range. The reaction was initiated by the addition of ^3H-SAM, and incubated at 30° C. for 1 hour. Total final methylations on the substrate poly(dI-dC) were detected by a filter binding approach. Data analysis was performed using GraphPad Prism software (La Jolla, Calif.) for IC50 curve fits.

HT-29 = assay: Cancer cell growth inhibition, HT-29; format: cell-based; conditions: Homo sapiens; Colorectal, HT-29, cell viability, 72 h
Method: as §1, §2, §3, §4, §5
as §6, with “PBS. […]” for “PBS.”

U-87MG = assay: Cancer cell growth inhibition, U-87MG; format: cell-based; conditions: Homo sapiens, Brain, cell viability, 72 h
Method: as §1, §2, §3, §4, §5, §6, §7, §8

Jurkat = assay: Cancer cell growth inhibition, Jurkat; format: cell-based; conditions: Homo sapiens, Hematologic, cell viability, 72 h
Method: as §1, §2, §3, §4, §5, §6, §7, §8

RAMOS = assay: Cancer cell growth inhibition, RAMOS; format: cell-based; conditions: Homo sapiens, Hematologic, cell viability, 72 h
Method: as §1, §2, §3, §4, §5, §6, §7, §8

143B = assay: Cancer cell growth inhibition, 143B; format: cell-based; conditions: Homo sapiens, Osteosarcoma, cell viability, 72 h
Method: as §1, §2, §3, §4, §5, §6, §7, §8

A-549 = assay: Cancer cell growth inhibition, A-549; format: cell-based; conditions: Homo sapiens, A549; Lung, A-549, cell viability, 72 h
Method: as §1, §2, §3, §4, §5, §6, §7, §8

CCFR-CEM = assay: Cancer cell growth inhibition, CCFR-CEM; format: cell-based; conditions: Hematologic, cell viability, 72 h
Method: as §1, §2, §3, §4, §5, §6, §7, §8

Panc-1 = assay: Cancer cell growth inhibition, Panc-1; format: cell-based; conditions: Homo sapiens; Pancreatic, Panc-1, cell viability, 72 h
Method: as §1, §2, §3, §4, §5, §6, §7, §8

HCT-116 = assay: Cancer cell growth inhibition, HCT-116; format: cell-based; conditions: Homo sapiens; Colorectal, HCT-116, cell viability, 72 h
Method: as §1, §2, §3, §4, §5, §6, §7, §8

NCI-H358 = assay: Cancer cell growth inhibition, NCI-H358; format: cell-based; conditions: Homo sapiens; Lung, NCI-H358, cell viability, 72 h
Method: as §1, §2, §3, §4, §5, §6, §7, §8

DU-145 = assay: Cancer cell growth inhibition, DU-145; format: cell-based; conditions: Homo sapiens; Prostate, DU-145, cell viability, 72 h
Method: as §1, §2, §3, §4, §5
as §6, with “PBS. […]” for “PBS.”

T47D = assay: Cancer cell growth inhibition, T47D; format: cell-based; conditions: Homo sapiens, Breast, cell viability, 72 h
Method: as §1, §2, §3, §4, §5, §6, §7, §8

NCI-H1650 = assay: Cancer cell growth inhibition, NCI-H1650; format: cell-based; conditions: Homo sapiens; Lung, NCI-H1650, cell viability, 72 h
Method: as §1, §2, §3, §4, §5
as §6, with “PBS. […]” for “PBS.”

HT-1080 = assay: Cancer cell growth inhibition, HT-1080; format: cell-based; conditions: Homo sapiens; HT-1080, cell viability, 72 h
Method: as §1, §2, §3, §4, §5, §6, §7, §8

SW-480 = assay: Cancer cell growth inhibition, SW-480; format: cell-based; conditions: Homo sapiens, SW480; Colorectal, SW-480, cell viability, 72 h
Method: as §1, §2
as §3, with “counted. […]” for “counted.”
(§9) Dose-response curves were generated by serial dilutions (1:1) of the compounds. […] Plates were incubated 72 h, and living cell number was determined by AlamarBlue® and Hexosaminidase test. […] AlamarBlue® assay: plates were incubated 72 h and living cell number was determined by AlamarBlue (Biosource DAL1100). After 4 h incubation at 37° C., relative fluorescent intensity, which correlates with the number of living cells, was read in a Cytofluor plate reader (Millipore) at 535/590 nm (Excitation/emission). The hexosaminidase activity was measured according to the following protocol: the media was removed and cells were washed once with PBS. […]

K562 = assay: Cancer cell growth inhibition, K562; format: cell-based; conditions: Homo sapiens; Hematologic, K562, cell viability, 72 h
Method: as §1, §2, §3, §4, §5
as §6, with “PBS. […]” for “PBS.”

SK-MEL-28 = assay: Cancer cell growth inhibition, SK-MEL-28; format: cell-based; conditions: Homo sapiens; Melanoma, SK-MEL-28, cell viability, 72 h
Method: as §1, §2, §3, §4, §5
as §6, with “PBS. […]” for “PBS.”

SK-OV-3 = assay: Cancer cell growth inhibition, SK-OV-3; format: cell-based; conditions: Homo sapiens; Ovarian, SK-OV-3, cell viability, 72 h
Method: as §1, §2, §3, §4, §5
as §6, with “PBS. […]” for “PBS.”

RPMI-8226 = assay: Cancer cell growth inhibition, RPMI-8226; format: cell-based; conditions: Homo sapiens; Multiple Myelome, RPMI-8226, cell viability, 72 h
Method: as §1, §2, §3, §4, §5, §6, §7, §8

LS174T = assay: Cancer cell growth inhibition, LS174T; format: cell-based; conditions: Homo sapiens, Colorectal, cell viability, 72 h
Method: as §1, §2
as §3, with “counted. […]” for “counted.”
as §9

NCI-H1975 = assay: Cancer cell growth inhibition, NCI-H1975; format: cell-based; conditions: Homo sapiens; Lung, NCI-H1975, cell viability, 72 h
Method: as §1, §2, §3, §4, §5, §6, §7, §8

U-373MG = assay: Cancer cell growth inhibition, U-373MG; format: cell-based; conditions: Homo sapiens, U373 MG, Brain, cell viability, 72 h
Method: as §1, §2, §3, §4, §5
as §6, with “PBS. […]” for “PBS.”

MCF-7 = assay: Cancer cell growth inhibition, MCF-7; format: cell-based; conditions: Homo sapiens, MCF7; Breast, MCF-7, cell viability, 72 h
Method: as §1, §2, §3, §4, §5, §6, §7, §8

MiaPaCa-2 = assay: Cancer cell growth inhibition, MiaPaCa-2; format: cell-based; conditions: Homo sapiens, MIA PaCa-2; Pancreatic, MiaPaCa-2, cell viability, 72 h
Method: as §1, §2, §3, §4, §5, §6, §7, §8

LoVo = assay: Cancer cell growth inhibition, LoVo; format: cell-based; conditions: Homo sapiens, Colorectal, cell viability, 72 h
Method: as §1, §2, §3, §4, §5
as §6, with “PBS. […]” for “PBS.”

Colo205 = assay: Cancer cell growth inhibition, Colo205; format: cell-based; conditions: Homo sapiens, COLO 205; Colorectal, Colo205, cell viability, 72 h
Method: as §1, §2, §3, §4, §5
as §6, with “PBS. […]” for “PBS.”

| SMILES | EC50 (PC3) | EC50 (MDA-MB-435) | EC50 (Daoy) | EC50 (LnCaP) | IC50 (Human DNMT1) | EC50 (U-87MG) | EC50 (Jurkat) | EC50 (RAMOS) | EC50 (143B) | EC50 (A-549) | EC50 (CCFR-CEM) | EC50 (Panc-1) | EC50 (HCT-116) | EC50 (NCI-H358) | also measured |
| --- | --- | --- | --- | --- | --- | --- | --- | --- | --- | --- | --- | --- | --- | --- | --- |
| COc1cc(OC)c2c(-c3ccc(O)c(O)c3)cn(CC(=O)c3ccc(O)c(O)c3)c2c1 [Example 8, 1-(3,4-dihydroxyphenyl)-2-[3-(3,4-dihydroxyphenyl)-4,6-dimethoxy-1H-indol-1-yl]ethanone] | 48 µM | 23 µM | 50 µM | 27 µM | 6.85 µM | 22 µM | 56 µM | 55 µM | 19 µM | 93 µM | 34 µM | 55 µM | 96 µM | 50 µM | EC50 (MDA-MB-468): 94 µM; EC50 (A-431): 59 µM; EC50 (HT-29): 59 µM |
| COc1cc(OC)c2c(-c3ccc(O)c(O)c3O)cn(CC(=O)c3ccc(O)c(O)c3O)c2c1 [Example 11, 2-[4,6-dimethoxy-3-(2,3,4-trihydroxyphenyl)-1H-indol-1-yl]-1-(2,3,4-trihydroxyphenyl)ethanone] | 26 µM | 11 µM | 6.6 µM | 30 µM | 39.4 µM | 50 µM | 8.9 µM | 12 µM | 99 µM | 35 µM | 7.6 µM | 23 µM | 22 µM | 51 µM | EC50 (DU-145): 47 µM; EC50 (T47D): 30 µM; EC50 (NCI-H1650): 57 µM; EC50 (HT-1080): 20 µM; EC50 (SW-480): 24 µM; EC50 (K562): 69 µM; EC50 (SK-MEL-28): 33 µM; EC50 (SK-OV-3): 73 µM; EC50 (RPMI-8226): 60 µM; EC50 (LS174T): 62 µM; EC50 (NCI-H1975): 30 µM; EC50 (U-373MG): 58 µM; EC50 (MCF-7): 12 µM; EC50 (MiaPaCa-2): 65 µM; EC50 (LoVo): 50 µM; EC50 (Colo205): 24 µM |
